Test results published in PubChem BioAssay (NCI).
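96-well plates; 48 h exposure; 5 concentrations. Endpoints by linear interpolation between flanking doses. Not reached: highest tested concentration assigned. Here, GI50 denotes the concentration required for 50% inhibition of growth. At the TGI there is no net growth.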

What was measured:
Assay in all cases: NCI tumour cell line growth inhibition, 48 h
NCI-H226 lung = test system: NCI-H226 lung
NCI-H23 lung = test system: NCI-H23 lung
NCI-H522 lung = test system: NCI-H522 lung
NCI/ADR-RES ovarian = test system: NCI/ADR-RES ovarian
OVCAR-3 ovarian = test system: OVCAR-3 ovarian
OVCAR-4 ovarian = test system: OVCAR-4 ovarian
OVCAR-5 ovarian = test system: OVCAR-5 ovarian
OVCAR-8 ovarian = test system: OVCAR-8 ovarian
PC-3 prostate = test system: PC-3 prostate
RPMI-8226 leukemia = test system: RPMI-8226 leukemia
RXF 393 renal = test system: RXF 393 renal
SF-268 CNS = test system: SF-268 CNS
SF-295 CNS = test system: SF-295 CNS
SF-539 CNS = test system: SF-539 CNS
SK-MEL-2 melanoma = test system: SK-MEL-2 melanoma
SK-MEL-28 melanoma = test system: SK-MEL-28 melanoma
SK-MEL-5 melanoma = test system: SK-MEL-5 melanoma
SK-OV-3 ovarian = test system: SK-OV-3 ovarian
SN12C renal = test system: SN12C renal
SNB-19 CNS = test system: SNB-19 CNS
SNB-75 CNS = test system: SNB-75 CNS
SR leukemia = test system: SR leukemia
SW-620 colon = test system: SW-620 colon
T-47D breast = test system: T-47D breast
TK-10 renal = test system: TK-10 renal
U251 CNS = test system: U251 CNS
UACC-257 melanoma = test system: UACC-257 melanoma
UACC-62 melanoma = test system: UACC-62 melanoma
UO-31 renal = test system: UO-31 renal

Compound `Nc1cc(-c2c[nH]c3ccc(Br)cc23)nc2cc(-c3c[nH]c4ccccc34)nn12` has a TGI (NCI-H226 lung) of 41.4 µM, a GI50 (NCI-H23 lung) of 2.36 µM and a TGI (NCI-H23 lung) of 6.64 µM. It also gave a GI50 (NCI-H522 lung) of 1.68 µM, a TGI (NCI-H522 lung) of 3.51 µM and a GI50 (NCI/ADR-RES ovarian) of 3.33 µM. For the same compound, the TGI (NCI/ADR-RES ovarian) was 13.3 µM, the GI50 (OVCAR-3 ovarian) was 3.44 µM and the TGI (OVCAR-3 ovarian) was 14 µM. It also gave a GI50 (OVCAR-4 ovarian) of 3.97 µM, a TGI (OVCAR-4 ovarian) of 19 µM and a GI50 (OVCAR-5 ovarian) of 2.08 µM. The TGI (OVCAR-5 ovarian) was 5.36 µM, the GI50 (OVCAR-8 ovarian) was 4.06 µM and the TGI (OVCAR-8 ovarian) was 18.1 µM. For the same compound, the GI50 (PC-3 prostate) was 2.57 µM, the TGI (PC-3 prostate) was 8.4 µM and the GI50 (RPMI-8226 leukemia) was 2.88 µM. The TGI (RPMI-8226 leukemia) was 9.09 µM, the GI50 (RXF 393 renal) was 2.66 µM and the TGI (RXF 393 renal) was 7.87 µM. For the same compound, the GI50 (SF-268 CNS) was 3.72 µM, the TGI (SF-268 CNS) was 18.5 µM and the GI50 (SF-295 CNS) was 1.9 µM. It also gave a TGI (SF-295 CNS) of 4.01 µM, a GI50 (SF-539 CNS) of 1.74 µM and a TGI (SF-539 CNS) of 3.38 µM. For the same compound, the GI50 (SK-MEL-2 melanoma) was 2.44 µM, the TGI (SK-MEL-2 melanoma) was 7.13 µM and the GI50 (SK-MEL-28 melanoma) was 2.23 µM. It also gave a TGI (SK-MEL-28 melanoma) of 5.71 µM, a GI50 (SK-MEL-5 melanoma) of 2.7 µM and a TGI (SK-MEL-5 melanoma) of 7.62 µM. For the same compound, the GI50 (SK-OV-3 ovarian) was 7.75 µM, the TGI (SK-OV-3 ovarian) was 21 µM and the GI50 (SN12C renal) was 4.03 µM. The TGI (SN12C renal) was 16.4 µM, the GI50 (SNB-19 CNS) was 3.67 µM and the TGI (SNB-19 CNS) was 14.1 µM. It also gave a GI50 (SNB-75 CNS) of 2.17 µM, a TGI (SNB-75 CNS) of 11.3 µM and a GI50 (SR leukemia) of 2.23 µM. It also gave a TGI (SR leukemia) greater than 100 µM, a GI50 (SW-620 colon) of 1.87 µM and a TGI (SW-620 colon) of 3.7 µM. The GI50 (T-47D breast) was 3.15 µM, the TGI (T-47D breast) was 20.3 µM and the GI50 (TK-10 renal) was 2.56 µM. The TGI (TK-10 renal) was 12 µM, the GI50 (U251 CNS) was 2 µM and the TGI (U251 CNS) was 4.57 µM. For the same compound, the GI50 (UACC-257 melanoma) was 3.86 µM, the TGI (UACC-257 melanoma) was 15.1 µM and the GI50 (UACC-62 melanoma) was 1.88 µM. The TGI (UACC-62 melanoma) was 4.35 µM, the GI50 (UO-31 renal) was 2.74 µM and the TGI (UO-31 renal) was 11.8 µM.
